Laboratory results reported in US5656600A, “α-ketoamide derivatives as inhibitors of thrombosis” (Corvas International, Inc., priority 1993, dated 1997).

Legend:
[1] = system: FeCl3 Model of Thrombosis in Rats; test: Rat model of FeCl3-induced platelet-dependent arterial thrombosis; assay type: in vivo; conditions: for Incidence of Occlusion: occluded/total animals
Text: Kurz, K. D., Main, B. W., and Sandusky, G. E., Thromb. Res., 60:269-280 (1990). In this model a platelet-rich, occlusive thrombus is formed in a segment of the rat carotid artery treated with a fresh solution of FeCl3 absorbed to a piece of filter paper. The FeCl3 is thought to diffuse into the treated segment of artery and causes de-endothelialization resulting in thrombus formation. The effect of a test compound on the incidence of occlusive thrombus formation following the application of the FeCl3 is monitored by ultrasonic flowtometry and is used as the primary end point. The use of flowtometry is a modification of the original procedure in which thermal detection of clot formation was employed. Kurz, K. D., Main, B. W., and Sandusky, G. E., Thromb. Res., 60:269-280 (1990).
Male Harlan Sprague Sawley rats (420-450 g) were acclimated at least 72 hours prior to use and fasted for 12 hours prior to surgery with free access to water. The animals were prepared, anesthetized with Nembutal with catheters for blood pressure monitoring, drug and anesthesia delivery being implanted as described above. The left carotid artery was exposed and isolated by making a midline cervical incision followed by blunt dissection and spreading techniques to separate a 2 cm segment of the vessel from the carotid sheath. A silk suture is inserted under the proximal and distal ends of the isolated vessel to provide clearance for the placement of a ultrasonic flow probe (Transonic) around the proximal end of the vessel. The probe is then secured with a stationary arm.
The test compounds were administered as described above after placement of the flow probe and stabilization of the preparation for a period of 60 minutes prior to the thrombogenic stimulus. At t=0, a 3 mm diameter piece of filter paper (Whatman #3) soaked with 10 μL of a 35% solution of fresh FeCl3 (in water) was applied the segment of isolated carotid artery distal to the flow probe. Blood pressure, blood flow, heart rate, and respiration were monitored for 60 minutes.
The incidence of occlusion (defined as the attainment of zero blood flow) was recorded as the primary end point. Following the 60 minute observation period the flow probe was removed and the area cleared of all excess fluid. The distal and proximal sutures were tied off and arterial clamps placed on the far proximal and distal ends of the segment. The isolated segment was cut out, blotted dry on filter paper and weighed. The segment was re-weighed following removal of the clot and the difference recorded as total % clot (see above). Weights were recorded on only those segments which had detectable thrombus. Following the procedure the animals were euthanized as described above.

α-thrombin = α-thrombin (Homo sapiens, UniProt P00734); test: Amidolytic thrombin assay (inhibition constant Ki); assay type: biochemical
Experimental: The ability of the compounds of the present invention to act as inhibitors of thrombin catalytic activity in comparison to Hirulog-1 (compound 25) was assessed by determining their inhibition constant, Ki.
Enzyme activity was determined using the chromogenic substrate Pefachrome t-PA (CH3 SO2 -D-hexahydrotyrosine-glycyl-L-arginine-p-nitroaniline, obtained from Pentapharm Ltd.). The substrate was reconstituted in deionized water prior to use.
Ki values were determined for test compounds using the following methodologies:
The assay was conducted by combining in appropriate wells of a Corning microtiter plate, 50 μL of HBSA, 50 μL of the test compound at a specified concentration diluted in HBSA (or HBSA alone for Vo(uninhibited velocity) measurement), and 50 μL of the chromogenic substrate diluted in HBSA. At time zero, 50 μL of α-thrombin diluted in HBSA, was added to the wells yielding a final concentration of 0.25 nM in a total volume of 200 μL. Velocities of Pefachrome-tPA substrate hydrolysis which occurred over a 40 minute time period was measured by the change in absorbance at 405 nm using a Thermo Max® Kinetic Microplate Reader. […] The linear relationship between kobs and inhibitor concentration is indicative of a competitive, one step mechanism and was used to calculate kon and koff which yielded a value for Ki after taking into consideration the concentration and Km (38.5 μM) of the substrate in the assay.
The initial velocity of Pefachrome t-PA hydrolysis was measured by the change in absorbance at 405 nm using a Thermo Max® Kinetic Microplate Reader over a 2 minute period in which less than 5% of the added substrate was utilized. The relationship between the ratio of the inhibited steady-state velocity (Vs) and the uninhibited velocity (Vo) to the concentration of inhibitor [It ], was analyzed using Equation 1 developed by Morrison , J. F., Biochim. Biophys. Acta, 185:269 (1969) for inhibitors which deplete a significant amount of the total enzyme (Et) over the course of the assay (designated tight binding inhibitors):
Vs/Vo={([Et ]-[It ]-Ki*)+[([It ]+Ki*-[Et ])^2
Ki* was determined by fitting Vs/Vo verses [I] using Equation 1 by non-linear regression analysis.
The best fit of the data for both compounds was to the equation describing competitive inhibition.

washed human platelets = test: Thrombin-induced aggregation in washed human platelets; assay type: cell-based
Experimental: Washed human platelets were prepared from freshly isolated venous blood obtained from normal, healthy volunteers who had not taken any medication which might affect platelet function, according to the procedure of Connolly, T. M. et al., J. Biol. Chem., 267:6893 (1992). Inhibitors, were added in a volume of 20 μL to 350 μL of prewarmed washed platelets in a siliconized glass cuvette (Chronolog Corp., Havertown, PA) followed by 10 μL of 0.25 M CaCl2. The rate and extent of aggregation were measured for 5-15 minutes by the change in light transmission in a stirred cuvette, following the addition of 20 μL of […] (final concentration 2 nM), using a Chronolog Whole Blood Aggregometer equipped with the Aggro/Link data acquisition system (Chronolog Corp., Hayertown, PA). The extent of inhibition was determined by measuring the change in the amplitude (extent) of the aggregation response compared to the control (uninhibited) response over the 1 minute period following the addition of thrombin.

[2] = 0.1 mg/kg i.v. bolus + 40 μg/kg/min i.v. infusion

Substance: (D--Phe)--Pro--Arg--Pro--(Gly4 --Asn--Gly--Asp--Phe--Glu--Glu--IIe--Pro--Glu--Glu--Tyr--Leu--OH [Compound 25]
- % Clot ([1]; 0.1 mg/kg i.v. bolus + 5 μg/kg/min i.v. infusion, mean ± S.E.M., segments with detectable thrombus): 70.1 ± 5.5%
- Incidence of Occlusion ([1]; 0.1 mg/kg i.v. bolus + 5 μg/kg/min i.v. infusion): 3/3
- % Clot ([1]; 0.1 mg/kg i.v. bolus + 10 μg/kg/min i.v. infusion, mean ± S.E.M., segments with detectable thrombus): 59.42 ± 4.34%
- Incidence of Occlusion ([1]; 0.1 mg/kg i.v. bolus + 10 μg/kg/min i.v. infusion): 5/6
- % Clot ([1]; 0.1 mg/kg i.v. bolus + 20 μg/kg/min i.v. infusion, mean ± S.E.M., segments with detectable thrombus): 45.3 ± 11.63%
- Incidence of Occlusion ([1]; 0.1 mg/kg i.v. bolus + 20 μg/kg/min i.v. infusion): 5/6
- % Clot [1, 2]: 0%
- Incidence of Occlusion [1, 2]: 0/6
- Ki (α-thrombin; chromogenic substrate Pefachrome t-PA, HBSA pH 7.5, slow-binding (kon/koff) or Dixon analysis): 0.437 nM
- kinetics / mechanism of thrombin inhibition (α-thrombin; in words): rapid, reversible kinetics of inhibition
- persistence of inhibition of aggregation over the 15 minute course of the assay (washed human platelets; 20nM (compound 8), same or higher concentrations (Hirulog-1), FIG. 4): did not cause sustained inhibition of the aggregation response
- IC50 (washed human platelets; α-thrombin 2 nM, extent of aggregation over 1 minute after thrombin, mean ± standard deviation, three determinations): 16 ± 3 nM
